PubChem BioAssay (NCI)
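Where inhibition never reached the appropriate level, the endpoint shown equals the highest concentration tested. Otherwise, values were interpolated linearly from a five-concentration, 48-hour dose response in 96-well plates. TGI is the concentration that stops growth completely.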

Legend:
Experiment in all cases: NCI tumour cell line growth inhibition, 48 h
[1] = system: KM12 colon
[2] = system: DU-145 prostate
[3] = system: MDA-N
[4] = system: MALME-3M melanoma
[5] = system: COLO 205 colon
[6] = system: RXF 393 renal
[7] = system: MDA-MB-231 breast
[8] = system: SK-MEL-5 melanoma
[9] = system: RPMI-8226 leukemia
[10] = system: UACC-257 melanoma

Structure (SMILES)	TGI [1]	TGI [2]	TGI [3]	TGI [4]	TGI [5]	TGI [6]	TGI [7]	TGI [8]	TGI [9]	TGI [10]
O=C(Nc1ccc(F)cc1)c1cc2c(cc1Cl)Sc1nccn1S2(=O)=O	> 100 µM	> 100 µM	> 100 µM	> 100 µM	> 100 µM	> 100 µM	> 100 µM	> 100 µM	–	–
COc1ccc(CNc2nc3cc(C(F)(F)F)ccc3nc2C(=O)O)cc1	63.6 µM	> 100 µM	74.6 µM	–	39.7 µM	–	> 100 µM	32.1 µM	> 100 µM	> 100 µM
C=CCOCn1cnc2c(=O)[nH]c(N)nc21	> 100 µM	> 100 µM	> 100 µM	> 100 µM	> 100 µM	–	> 100 µM	> 100 µM	> 100 µM	–
C#CCn1c(=O)ccn(/C(=C/C(=O)OCC)C(=O)OCC)c1=O	33.8 µM	30.7 µM	41.1 µM	5.19 µM	–	3.3 µM	40.9 µM	31 µM	> 24.6 µM	29.6 µM
C=C(C)CCC(O)[C@](C)(O)[C@H]1[C@H](O)C[C@@]2(C)[C@@H]3CCc4c(cc(OC5OC(CO)C(O)C(O)C5O)c(O)c4C)C3(C)C(=O)C[C@]12C (stereo partly drawn)	> 100 µM	> 100 µM	> 100 µM	> 100 µM	> 100 µM	> 100 µM	> 100 µM	–	–	> 100 µM
Cc1cccc(-c2nc(-c3cnccn3)n(Cc3ccccc3)n2)c1	> 100 µM	> 100 µM	> 100 µM	–	> 100 µM	94.1 µM	> 100 µM	> 100 µM	> 100 µM	> 100 µM
CC/C=C\C=C/C(=O)N/C=C/CCC	> 100 µM	> 100 µM	> 100 µM	> 100 µM	–	> 100 µM	> 100 µM	–	> 100 µM	> 100 µM
Cc1ccc(S(=O)(=O)Nn2c(S)c(C#N)c(-c3ccc(Cl)cc3)c(C#N)c2=O)cc1	88.4 µM	> 100 µM	–	> 100 µM	> 100 µM	> 100 µM	> 100 µM	42.2 µM	88.8 µM	> 100 µM
CC(=O)OCC1OC(O[C@H]2C=C[C@@H](C(=O)OCc3ccccc3)n3c(=O)n(-c4ccccc4)c(=O)n32)C(OC(C)=O)C(OC(C)=O)C1OC(C)=O (stereo partly drawn)	12.2 µM	8.47 µM	7.1 µM	–	8.75 µM	4.07 µM	4.12 µM	5.66 µM	3.31 µM	3.73 µM
[O-][N+]1=C2CCC/C(=N/O)C2(O)C2CCCCC21N1CCOCC1 (stereo not drawn)	> 100 µM	–	> 100 µM	> 100 µM	> 100 µM	> 100 µM	> 100 µM	> 100 µM	–	> 100 µM
COCCCNc1c2ccccc2nc2ccccc12	24.6 µM	9.75 µM	8.78 µM	7.17 µM	6.73 µM	14.2 µM	12.5 µM	4.51 µM	–	7.03 µM
